Assay results published in patent US7687456B2, “Compounds for enzyme inhibition” (Proteolix, Inc., priority 2005, dated 2010).

What follows are molecules tested on proteasome CT-L activity (assay: Proteasome CT-L inhibition in blood of mice one hour after oral dosing). Settings: 20 mg/kg PO, one hour post-dosing, blood lysate, substrate LLVY-AMC, relative to vehicle-dosed cohort.
Assay type: in vivo
Protocol: Compounds were formulated in 10% PS80/NaCitrate (pH 3) vehicle and administered to mice orally (PO) (3 animals/cohort). One hour post-dosing, the animals were sacrificed and the following tissues harvested: blood, brain, adrenal gland, heart and liver. Whole blood (˜200 μl) was washed twice with PBS and lysed by hypotonic shock (300 μl 50 mM Tris pH 8, 5 mM EDTA). Blood lysates were stored at −80° C. until assayed. Blood lysates were clarified by centrifugation in a microcentrifuge. The CT-L specific activity of proteasome in each lysate was evaluated by determining: a) the protein concentration by modified Bradford assay with bovine gamma globulin as a standard; and b) the rate of cleavage of the fluorogenic proteasome substrate LLVY-AMC. The percent proteasome activity for the analog-treated animals was calculated by dividing of the average specific activity for each analog-dosed cohort by the average specific activity of the vehicle-dosed cohort. Percent proteasome inhibition was calculated by subtracting percent proteasome activity from 100. Equivalents

Question: How did the “proteasome CT-L inhibition” value turn out when `COC[C@H](NC(=O)c1cc(C)on1)C(=O)N[C@H](C(=O)N[C@@H](CC(C)C)C(=O)[C@@]1(C)CO1)C(C)C` [Compound 029] was run?
Answer: Its value is > 70%.

Question: Which “proteasome CT-L inhibition” value does the source give for `COC[C@H](NC(=O)c1cc(C)on1)C(=O)N[C@@H](Cc1cscn1)C(=O)N[C@@H](CC(C)C)C(=O)[C@@]1(C)CO1` [Compound 039] here?
Answer: The value was > 75%.

Question: How did the “proteasome CT-L inhibition” value turn out when `COC[C@H](NC(=O)c1cc(C)on1)C(=O)N[C@@H](C)C(=O)N[C@@H](CC(C)C)C(=O)[C@@]1(C)CO1` [Compound 045] was run?
Answer: The value was > 80%.

Question: For `Cc1cc(C(=O)N[C@@H](Cc2ccccn2)C(=O)N[C@@H](Cc2ccccc2)C(=O)N[C@@H](CC(C)C)C(=O)[C@@]2(C)CO2)no1` [Compound 055], which “proteasome CT-L inhibition” value is on record?
Answer: The value was > 80%.

Question: Which “proteasome CT-L inhibition” value does the source give for `COC[C@H](NC(=O)c1cc(C)on1)C(=O)N[C@@H](COC)C(=O)N[C@@H](CC(C)C)C(=O)[C@@]1(C)CO1` [Compound 075] here?
Answer: The value was > 80%.

Question: `COC[C@H](NC(=O)c1ccon1)C(=O)N[C@@H](COC)C(=O)N[C@@H](CC(C)C)C(=O)[C@@]1(C)CO1` [Compound 083] was tested. Which “proteasome CT-L inhibition” value did it give?
Answer: Its value is > 80%.

Question: With `COC[C@H](NC(=O)c1cc(C)no1)C(=O)N[C@@H](COC)C(=O)N[C@@H](CC(C)C)C(=O)[C@@]1(C)CO1` [Compound 085] as the molecule, how does the “proteasome CT-L inhibition” value read?
Answer: Its value is > 50%.

Question: `COC[C@H](NC(=O)c1cc(C)on1)C(=O)N[C@@H](COC)C(=O)N[C@@H](Cc1ccccc1)C(=O)[C@@]1(C)CO1` [Compound 088] was tested. Which “proteasome CT-L inhibition” value did it give?
Answer: The value was > 80%.

Question: Which “proteasome CT-L inhibition” value does the source give for `COC[C@H](NC(=O)c1cc(C)on1)C(=O)N[C@@H](COC)C(=O)N[C@@H](Cc1ccc(F)cc1)C(=O)[C@@]1(C)CO1` [Compound 091] here?
Answer: Its value is > 80%.

Same assay, conditions: 40 mg/kg PO, one hour post-dosing, blood lysate, substrate LLVY-AMC, relative to vehicle-dosed cohort

Question: Which “proteasome CT-L inhibition” value does the source give for `COC[C@H](NC(=O)c1cc(C)on1)C(=O)N[C@@H](Cc1ccccc1)C(=O)N[C@@H](CC(C)C)C(=O)[C@@]1(C)CO1` [Compound 010] here?
Answer: The value was > 90%.

Question: Which “proteasome CT-L inhibition” value does the source give for `CC(C)C[C@H](NC(=O)c1cc(CN2CCOCC2)on1)C(=O)N[C@@H](Cc1ccccc1)C(=O)N[C@@H](CC(C)C)C(=O)[C@@]1(C)CO1` [Compound 023] here?
Answer: The value was > 80%.

Question: `CC(C)C[C@H](NC(=O)c1cc(CN2CCOCC2)on1)C(=O)N[C@@H](Cc1cscn1)C(=O)N[C@@H](CC(C)C)C(=O)[C@@]1(C)CO1` [Compound 035] was tested. Which “proteasome CT-L inhibition” value did it give?
Answer: The value was > 90%.

Question: For `CC(C)C[C@H](NC(=O)[C@H](Cc1ccccc1)NC(=O)[C@@H](NC(=O)c1cc(CN2CCOCC2)on1)C(C)C)C(=O)[C@@]1(C)CO1` [Compound 061], which “proteasome CT-L inhibition” value is on record?
Answer: The value was > 80%.

Question: For `COCC[C@H](NC(=O)c1cc(C(C)C)on1)C(=O)N[C@@H](Cc1ccccc1)C(=O)N[C@@H](CC(C)C)C(=O)[C@@]1(C)CO1` [Compound 068], which “proteasome CT-L inhibition” value is on record?
Answer: The value was > 70%.
